The text below walks through data of US5145783A, “Glyphosate-tolerant 5-endolpyruvyl-3-phosphoshikimate synthase” (Monsanto Company, priority 1990, dated 1992).

“Also recorded” adds a separate entry of the source.

In test [1] the test system is wild-type (non-transformed) petunia plants. The test can be described thus: Plant response to glyphosate spraying, control plants. It counts as in vivo. The conditions noted are these: 0.8 #/acre acid equivalent, isopropylamine salt sprayed. How it is done: Four individual representative transgenic seedlings were selected, grown and tested in the testing procedure described below, along with four individual non-transformed (wild-type) petunia seedlings.
The plants were grown in a growth medium in a growth chamber at 26° C. with 12 hours of light per day. The plants were fertilized weekly with a soluble fertilizer and watered as needed. The plants were sprayed at a uniform and reproducible delivery rate of herbicide by use of an automated track sprayer. The glyphosate solution used was measured as pounds of glyphosate acid equivalents per acre, mixed as the glyphosate isopropylamine salt, with an ionic surfactant.
Four individual wild-type (non-transformed) petunia plants were selected for use as control plants. Four individual transformed plants containing the pMON546 vector were selected by kanamycin resistance as described in Horsch et al. (1985).
The control plants and the transformed plants were sprayed with the isopropylamine salt of glyphosate at the application level listed in Table 2 below; the experimental results obtained are also summarized in Table 2.

Test [2] deals with tobacco plants transformed with glyphosate-tolerant petunia EPSP synthase gene (pMON567). The experiment in a line: Relative effect of glyphosate spray on transformed tobacco, glyphosate-tolerant gene. Particulars: GT. On the set-up: key: 0 = total kill, 10 = normal unsprayed plant. It counts as in vivo, Nicotiana tabacam CV H425. The source says: A culture of A. tumefaciens cells containing pMON567/pGV3111-SE was contacted with leaf disks taken from tobacco plants (Nicotiana tabacam CV H425) as described by Horsch (1985). The Agrobacterium cells inserted the mutant EPSP synthase gene into the chromosomes of the plant cells. Plant cells resistant to kanamycin were selected and regenerated into differentiated plants by the procedure of Horsch (1985).
Progeny of these plants were propagated and grown to a rosette diameter of about 10 cm corresponding to a plant age of about four weeks. […] […] The effect was translated to a numerical scale of 0-10 in which 0 represents total kill and 10 is the normal, unsprayed plant. […] The values represent the best transformant for both wild-type EPSP synthase and glyphosate-tolerant EPSP synthase genes.

In test [3] the target is T1, wild-type EPSP synthase of tomato (Solanum lycopersicum, UniProt P10748).
T1 construct: ATG translational initiation codon at the site predicted to be the start of the mature enzyme for in vitro expression in E. Coli; initiator methionine (ATG in an engineered NcoI site) (N); made in house; host or cells: E. coli SR481 (aroA mutant) harboring pMON9719, desalted cell extract
T1 sequence (P10748 77-520): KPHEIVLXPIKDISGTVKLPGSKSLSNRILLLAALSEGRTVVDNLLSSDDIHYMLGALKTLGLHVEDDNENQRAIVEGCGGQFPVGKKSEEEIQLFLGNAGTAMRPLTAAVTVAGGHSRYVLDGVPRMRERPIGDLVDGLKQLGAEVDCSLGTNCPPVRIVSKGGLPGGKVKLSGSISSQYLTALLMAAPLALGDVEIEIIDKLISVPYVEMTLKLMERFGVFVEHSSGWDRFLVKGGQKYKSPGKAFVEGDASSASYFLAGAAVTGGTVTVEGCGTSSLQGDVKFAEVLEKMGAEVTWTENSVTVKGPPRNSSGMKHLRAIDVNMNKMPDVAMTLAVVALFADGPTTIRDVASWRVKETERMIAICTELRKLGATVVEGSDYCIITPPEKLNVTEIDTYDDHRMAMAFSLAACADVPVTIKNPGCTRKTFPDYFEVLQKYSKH
The test can be described thus: EPSP synthase activity assay, extracts of E. coli SR481 harboring pMON9719. It counts as biochemical. How it is done: (§1) E. coli SR481 cells harboring pMON9719 or pMON9729 were grown under conditions which induce the expression of the RecA promoter. The cells were lysed and the extracts were assayed for EPSP synthase activity.
(§2) Specifically, the bacterial cell paste was washed twice with 0.9% saline, suspended in buffer (100 mM Tris-HCl, 5 mM dithiothreitol, 1 mM EDTA, 10% glycerol and 1 mM benzamidine HCl) passed twice through the French Pressure Cell at 1000 psi. The cell abstract was separated from the cells by centrifuging at 15,000×gravity for 10 mins. at 5° C. It was desalted using Sephadex G-50 (Pharmacia, Piscataway, N.J.). The desalted extract was assayed for EPSP synthase activity as follows:
(§3) To an assay mix (40 μl) containing shikimate-3-phosphate (2 mM), ^14 C-phosphoenolpyruvate (1 mM, 1.2 mCi/mmol), ammonium molybdate (0.1 mM), potassium fluoride (5 mM), in 50 mM HEPES-KOH, pH 7, was added 10 μl of the extract and incubated at 25° C. for 2 mins. […] The radioactivity of the eluent was monitored using a Radiometric Flo-One Beta Instrument. […] The EPSP synthase activity was determined by measurement of the conversion of ^14 C-PEP to ^14 […], both of which are resolved under the above conditions of chromatography. The protein content of the extract was determined by the method of Bradford (Biorad Labs, Calif.). […]

Test [4] relates to petunia leaf disks transformed with CaMV35S/EPSP synthase gene (pMON546). The test can be described thus: Callus growth of petunia leaf disks on glyphosate media, transformed with pMON546. Type of test: cell-based. The procedure:
Leaf disks with diameters of 6 mm (1/4 inch) were taken from surface-sterilized petunia leaves. They were cultivated on MS104 agar medium for 2 days to promote partial cell wall formation at the wound surfaces. They were then submerged in a culture of A. tumefaciens cells containing both pMON546 and GV3111-SE which had been grown overnight in Luria broth at 28° C., and shaken gently. The cells were removed from the bacterial suspension, blotted dry, and incubated upside down on filter paper placed over "nurse" cultures of tobacco cells, as described in Horsch (1980). After 2 or 3 days, the disks were transferred to petri dishes containing MS media with 500 μg/ml carbenicillin and 0., 0.1, 0.25, or 0.5 mM glyphosate (sodium salt), with no nurse cultures.
Control tissue was created using A. tumefaciens cells containing the helper plasmid pGV3111-SE and a different plant transformation vector, pMON505, which contained a T-DNA region with a NOS/NPTII/NOS kanamycin resistance gene and a NOS selectable marker gene identical to pMON546, but without the CaMV35S/EPSP synthase gene.
Within 10 days after transfer to the media containing glyphosate, actively growing callus tissue appeared on the periphery of all disks on the control plate containing no glyphosate. […] This confirms that the CaMV35S/EPSP synthase gene conferred glyphosate resistance upon the transformed cells.

Test [5] concerns the target T2, glyphosate-tolerant EPSP synthase (gly(101)-ala) of tomato (Solanum lycopersicum, UniProt P10748, G177A).
T2 construct: ATG translational initiation codon at the site predicted to be the start of the mature enzyme for in vitro expression in E. Coli; initiator methionine (ATG in an engineered NcoI site) (N); made in house; host or cells: E. coli SR481 (aroA mutant) harboring pMON9729, desalted cell extract
The test can be described thus: EPSP synthase activity assay, extracts of E. coli SR481 harboring pMON9729. Type of test: biochemical. The procedure: as §1, §2, §3

T2 sequence (P10748 77-520 G177A): as the sequence (P10748 77-520) above, with G101A counted along it

`O=C(O)CNCP(=O)(O)O` [glyphosate, N-phosphonomethylglycine]: the “Visual Appearance” value in test [1] is listed as “completely dead; also recorded: killed”. Besides, the “Relative effect of glyphosate (0 total kill, 10 no effect)” value was found to be 8.0 in test [2] (0.4 Pounds/Acre, Day 7, best transformant); 8.0 in test [2] (0.4 Pounds/Acre, Day 14, best transformant); 9.0 in test [2] (0.4 Pounds/Acre, Day 28, best transformant); 8.0 in test [2] (2.0 Pounds/Acre, Day 7, best transformant); 8.3 in test [2] (2.0 Pounds/Acre, Day 14, best transformant); 7.0 in test [2] (2.0 Pounds/Acre, Day 28, best transformant). The “Relative effect of glyphosate (0 total kill, 10 no effect)” value in test [2] (3.6 Pounds/Acre, Day 7, best transformant) is listed as 5.0; in test [2] (3.6 Pounds/Acre, Day 14, best transformant), 7.4; in test [2] (3.6 Pounds/Acre, Day 28, best transformant), 7.0. The 50% inhibitory concentration (IC50) came out at 12 µM in test [3] and 32 mM in test [5]. Besides, the “callus growth, control disks versus transformed tissue” value in test [4] (0.1 mM glyphosate, within 10 days after transfer) is “little detectable difference”. Also, the callus growth is reported as “substantial growth” in test [4] (0.25 mM glyphosate, transformed tissue) and “a significant number of calli grew” in test [4] (0.5 mM glyphosate, transformed disks).

The IC50 is the concentration that gives 50% inhibition.
